Literature values as cited in patent US20130331402A1, “DOSING REGIMEN ASSOCIATED WITH LONG-ACTING INJECTABLE PALIPERIDONE ESTERS” (Janssen Pharmaceutica NV, priority 2009, published 2013).
Like-named read-outs stand apart in the source and are kept apart here.

What was measured:
[1] = background statement
[2] = depot intramuscular antipsychotics
[3] = oral atypical antipsychotics, Table 2
[4] = oral typical antipsychotics, Table 1

| SMILES | Terminal Half-life [4] [h] | t1/2 (apparent terminal half-life after multiple dosing) [2] [days] | other results |
| --- | --- | --- | --- |
| CCCCCCCCCCCCCCCC(=O)OC1CCCn2c1nc(C)c(CCN1CCC(c3noc4cc(F)ccc34)CC1)c2=O (racemic) [paliperidone palmitate, (±)-3-[2-[4-(6-fluoro-1,2-benzisoxazol-3-yl)-1-piperidinyl]ethyl]-6,7,8,9-tetrahydro-2-methyl-4-oxo-4H-pyrido[1,2-c]pyrimidin-9-yl hexadecanoate] | – | – | water solubility [1]: extreme low water solubility |
| CCN1CCCC1CNC(=O)c1cc(S(=O)(=O)CC)c(N)cc1OC (stereo not drawn) [Amisulpride] | – | – | Terminal Half-life [3]: 12 h |
| O=C1CCc2ccc(OCCCCN3CCN(c4cccc(Cl)c4Cl)CC3)cc2N1 [Aripiprazole] | – | – | Terminal Half-life [3]: 47 to 68 h |
| CN(C)CCCN1c2ccccc2Sc2ccc(Cl)cc21 [Chlorpromazine] | 8 to 35 | – | – |
| CCCCCCCCCC(=O)OCCN1CCN(CC/C=C2\c3ccccc3Sc3ccc(Cl)cc32)CC1 [Clopenthixol decanoate] | – | 19 | – |
| CN1CCN(C2=Nc3cc(Cl)ccc3Nc3ccccc32)CC1 [Clozapine] | – | – | Terminal Half-life [3]: 9 to 17 h |
| CCCCCCCCCC(=O)OCCN1CCN(CC/C=C2\c3ccccc3Sc3ccc(C(F)(F)F)cc32)CC1 [Flupenthixol decanoate] | – | 17 | – |
| CCCCCCCCCC(=O)OCCN1CCN(CCCN2c3ccccc3Sc3ccc(C(F)(F)F)cc32)CC1 [Fluphenazine decanoate] | – | 14 | – |
| CCCCCCC(=O)OCCN1CCN(CCCN2c3ccccc3Sc3ccc(C(F)(F)F)cc32)CC1 [Fluphenazine enanthate] | – | 4 | – |
| CCc1c(C)[nH]c2c1C(=O)C(CN1CCOCC1)CC2 (stereo not drawn) [Molindone] | 1.5 | – | – |
| Cc1cc2c(s1)Nc1ccccc1N=C2N1CCN(C)CC1.O.O=C(O)c1cc2ccccc2c(Cc2c(O)c(C(=O)O)cc3ccccc23)c1O [Olanzapine pamoate] | – | 30 | – |
| Cc1nc2n(c(=O)c1CCN1CCC(c3noc4cc(F)ccc34)CC1)CCCC2O (stereo not drawn) [Paliperidone (9-hydroxy-risperidone), Paliperidone] | – | – | Terminal Half-life [3]: 25 h |
| CCCCCCC(=O)OCCN1CCN(CCCN2c3ccccc3Sc3ccc(Cl)cc32)CC1 [Perphenazine enanthate] | – | 4 to 6 | – |
| CCCCCCCCCCCCCCCC(=O)OCCC1CCN(CCCN2c3ccccc3Sc3ccc(S(=O)(=O)N(C)C)cc32)CC1 [Pipothiazine palmitate] | – | 15 to 16 | – |
| OCCOCCN1CCN(C2=Nc3ccccc3Sc3ccccc32)CC1 [Quetiapine] | – | – | Terminal Half-life [3]: 6 h |
| O=C1NCCN1CCN1CCC(c2cn(-c3ccc(F)cc3)c3ccc(Cl)cc23)CC1 [Sertindole] | – | – | Terminal Half-life [3]: 70 h |
| CN1CCN(CC/C=C2/c3ccccc3Sc3ccc(S(=O)(=O)N(C)C)cc32)CC1 [Thiothixene] | 34 | – | – |
| O=C1Cc2cc(CCN3CCN(c4nsc5ccccc45)CC3)c(Cl)cc2N1 [Ziprasidone] | – | – | Terminal Half-life [3]: 8 to 10 h |
| CCCCCCCCCC(=O)OCCN1CCN(CC/C=C2/c3ccccc3Sc3ccc(Cl)cc32)CC1 [Zuclopenthixol decanoate] | – | 19 | – |

Further lines, with some results ahead:

| Terminal Half-life [4] [h] | t1/2 (apparent terminal half-life after multiple dosing) [2] [days] | SMILES | other results |
| --- | --- | --- | --- |
| 22 to 36 | – | OCCN1CCN(CC/C=C2/c3ccccc3Sc3ccc(C(F)(F)F)cc32)CC1 [Flupenthixol] | – |
| 14 to 24 | – | OCCN1CCN(CCCN2c3ccccc3Sc3ccc(C(F)(F)F)cc32)CC1 [Fluphenazine] | – |
| – | 7 | O=C1NCN(c2ccccc2)C12CCN(CCCC(c1ccc(F)cc1)c1ccc(F)cc1)CC2 [Fluspirilene] | – |
| – | 21 | CCCCCCCCCC(=O)OC1(c2ccc(Cl)cc2)CCN(CCCC(=O)c2ccc(F)cc2)CC1 [Haloperidol decanoate] | – |
| 12 to 36 | – | O=C(CCCN1CCC(O)(c2ccc(Cl)cc2)CC1)c1ccc(F)cc1 [Haloperidol] | – |
| 4 | – | CN1CCN(C2=Nc3ccccc3Oc3ccc(Cl)cc32)CC1 [Loxapine] | – |
| 8 to 21 | – | OCCN1CCN(CCCN2c3ccccc3Sc3ccc(Cl)cc32)CC1 [Perphenazine] | – |
| 48 to 72 | – | O=c1[nH]c2ccccc2n1C1CCN(CCCC(c2ccc(F)cc2)c2ccc(F)cc2)CC1 [Pimozide] | – |
| 4 to 8 | – | CN1CCN(CCCN2c3ccccc3Sc3ccc(Cl)cc32)CC1 [Prochlorperazine] | – |
| 9 to 30 | – | CSc1ccc2c(c1)N(CCC1CCCCN1C)c1ccccc1S2 (stereo not drawn) [Thioridazine] | – |
| 10 to 20 | – | CN1CCN(CCCN2c3ccccc3Sc3ccc(C(F)(F)F)cc32)CC1 [Trifluoperazine] | – |
